Here are results for 9 compounds from publication PMC12163635, “Synthetic Retinoids for the Modulation of Genomic and Nongenomic Processes in Neurodegenerative Diseases” (ACS Omega, 2025).

Holding throughout (assay): Fluorescence competition binding assay (displacement of DC271)
Assay [1] deals with T1, RARα (Homo sapiens, UniProt P10276).
T1 construct: His6-3C-NusA (cleaved yes); made in house; host or cells: E. coli BL21(DE3), pET50b vector
T1 sequence (P10276 183-417 limits assumed): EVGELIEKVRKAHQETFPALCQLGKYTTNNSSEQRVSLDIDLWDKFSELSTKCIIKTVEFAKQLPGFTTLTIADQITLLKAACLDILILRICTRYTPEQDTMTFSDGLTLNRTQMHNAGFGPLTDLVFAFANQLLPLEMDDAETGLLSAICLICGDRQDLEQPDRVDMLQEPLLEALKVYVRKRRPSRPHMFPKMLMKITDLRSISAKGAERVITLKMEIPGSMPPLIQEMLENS
Particulars: for Kd: 100 nM RAR and DC271 on plate, read-out: Binding KD (± SD) RARα; for ΔGEXP RARα: experimental binding free energy from K D, ΔGexp=−RT ln K, 298.1 K. The protocol:
(§1) Fluorescence competition assays were employed to determine the relative binding affinities of each synthetic retinoid toward the LBD of the RARs. The assay is based on the potential for competitive displacement of the inherently fluorescent retinoid DC271 from the LBP by a test nonfluorescent synthetic retinoid. Changes in the fluorescence were measured following the addition of a serial dilution of the test compound and the results were plotted to generate a binding curve. […] Assays were performed for both RARα and RARγ. […] Nonlinear least-squares regression analyses were performed to calculate binding affinities and reported as binding K D, the equilibrium dissociation constant between the RAR isoform and the test synthetic retinoid.
(§2) RARα/γ proteins were expressed in BL21(DE3) cells (NEB) transformed into pET50b (Novagen) and pOPINS3C vectors, respectively, carrying the gene construct and containing a His6-3C-NusA tag or His6-3C-SUMO tag used for solubility. Transformations were carried out under standard conditions using Quick Transformation Protocol (New England Biolabs). Successful transformants were grown overnight in 2xYT media (Melford) and frozen for storage at −80 °C in 50% glycerol. Expression cultures were inoculated from glycerol stocks into 25 mL of 2xYT media (Melford) with 50 μg/mL kanamycin or 100 μg/mL ampicillin (Sigma-Aldrich) and grown overnight with shaking (37 °C, 150 rpm). The overnight cultures were transferred into 1 L expression flasks (2xYT/ampicillin 100 μg/mL or 2xYT/kanamycin 50 μg/mL) and grown with shaking at 37 °C, 150 rpm. Induction was carried out at an OD600 of 0.6–0.8, with 1 mL of 1 M IPTG (1 mM in culture), before shaking overnight (20 h) at 18 °C. The resulting cultures were spun down into pellets using an Avanti Hi-Speed centrifuge (JLA 8.1000, 4000 rpm, 30 min, 4 °C), before the supernatant was removed and the bacterial pellet were frozen at −80 °C.
(§3) RARα/γ (pET50b or pOPINS3C, BL21(DE3) (NEB)) were resuspended from pellet with 20 mL Wash Buffer (20 mM Tris-HCl, 300 mM NaCl and 20 mM imidazole, pH 8) and the resulting suspension was sonicated on ice (40% power, 2 min, repeated twice with 1 min rest in-between) before centrifuging (Avanti Hi-Speed JA25.50, 20,000 rpm, 1 h, 4 °C). Supernatants were clarified using 0.45 μm syringe filters (Thermo Fisher Scientific). Affinity chromatography and size-exclusion (SEC) chromatography were carried out on AKTA Pure25 (Cytiva). Supernatants were loaded onto the HisTrap HP column (5 mL, Cytiva) and washed using 25 mL of wash Buffer. The column was washed with Wash Buffer until UV trace returned to baseline, before RARα/γ was eluted using a gradient of Elution Buffer (20 mM Tris-HCl, 300 mM NaCl, 500 mM imidazole pH 8). The resulting protein-containing fractions were analyzed by SDS-PAGE (200 V, 30 min) using SurePAGE Bis-Tris 12% precast gels (Genscript). Protein concentrations were estimated using absorbance at 280 nm on a DS-11 spectrophotometer (Denovix) with calculated molecular weights and extinction coefficients (Expasy). RAR proteins were cleaved overnight from 3C-NusA tag or 3C-SUMO-His tag using 1 Unit/100 μg protein of HRV3C protease (Thermo Fisher Scientific) at 4 °C. Solution after digestion was loaded onto a HiLoad 16/600 Superdex 75 prep-grade column (Cytiva) and cleaved RARα/γ was separated from the tag based on molecular weight and eluted from the column using SEC Buffer (20 mM Tris-HCl, 300 mM NaCl and 0.5 mM TCEP, pH 8) into 2 mL fractions. The resulting protein fractions were analyzed by SDS PAGE (200 V, 30 min) using SurePAGE Bis-Tris 12% precast gels (Genscript), before being concentrated to 5 mg/mL using centrifugal concentrators (Sartorius) and frozen at −80 °C in small aliquots for use in binding assays.

Assay [2] has as its system RARα. Set-up: species or system human. Particulars: log-log plot of K D for RARα and RARγ. The protocol: as §1, §2, §3
In assay [3] the target is T2, RARγ (Homo sapiens, UniProt P13631).
T2 construct: His6-3C-SUMO (cleaved yes); made in house; host or cells: E. coli BL21(DE3), pOPINS3C vector
T2 sequence (P13631 185-419 limits assumed): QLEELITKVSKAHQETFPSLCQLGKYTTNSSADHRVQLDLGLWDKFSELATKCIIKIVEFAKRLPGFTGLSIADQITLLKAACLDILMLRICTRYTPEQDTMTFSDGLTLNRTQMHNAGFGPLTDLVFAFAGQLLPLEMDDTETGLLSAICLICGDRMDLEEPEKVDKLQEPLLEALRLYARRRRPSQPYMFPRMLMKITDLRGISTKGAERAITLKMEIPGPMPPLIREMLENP
The conditions noted are these: for Kd: 100 nM RAR and DC271 on plate, read-out: Binding KD (± SD) RARγ; for ΔGEXP RARγ: experimental binding free energy from K D, ΔGexp=−RT ln K, 298.1 K. How it is done: as §1, §2, §3

Sequence of RARα (P10276 182-417): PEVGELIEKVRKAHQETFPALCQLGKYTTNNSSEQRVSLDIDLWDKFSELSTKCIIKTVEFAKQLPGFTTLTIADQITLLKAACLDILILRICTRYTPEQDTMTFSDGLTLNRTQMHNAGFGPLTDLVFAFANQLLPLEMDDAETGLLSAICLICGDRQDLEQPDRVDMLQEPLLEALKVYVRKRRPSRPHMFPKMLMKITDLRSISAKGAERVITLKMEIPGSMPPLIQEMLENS

Broadly, the Kd is the constant that tells how readily two partners part at equilibrium. Regarding `CC1(C)CCC(C)(C)c2cc(C#Cc3ccc(C(=O)O)nc3)ccc21` [Compound 24, 5-[2-(5,5,8,8-Tetramethyl-5,6,7,8-tetrahydronaphthalen-2-yl)ethynyl]pyridine-2-carboxylic Acid], in assay [1], the Kd came out at 87.1 nM and the “ΔGEXP RARα” value is -9.64 kcal/mol. Besides, the “binding preference RARα versus RARγ (from K D)” value in assay [2] is listed as “bind RARα preferentially over RARγ”. Besides, in assay [3], the dissociation constant Kd came to 254 nM and the “ΔGEXP RARγ” value is -9.00 kcal/mol.

With `Cc1cc2c(cc1C#Cc1ccc(C(=O)O)cn1)C(C)(C)CCC2(C)C` [Compound 26, 6-[2-(3,5,5,8,8-Pentamethyl-5,6,7,8-tetrahydronaphthalen-2-yl)ethynyl]pyridine-3-carboxylic Acid], in assay [1], the Kd turned out to be 48.3 nM and the “ΔGEXP RARα” value is -10.0 kcal/mol. Moreover, the “binding preference RARα versus RARγ (from K D)” value in assay [2] was “bind RARα preferentially over RARγ”. Also, in assay [3], the dissociation constant Kd is 90.5 nM and the “ΔGEXP RARγ” value was -9.61 kcal/mol.

`COc1cc2c(cc1C#Cc1ccc(C(=O)O)cn1)C(C)(C)CCC2(C)C` [Compound 27, 6-[2-(3-Methoxy-5,5,8,8-tetramethyl-5,6,7,8-tetrahydronaphthalen-2-yl)ethynyl]pyridine-3-carboxylic Acid]: in assay [1], the Kd amounted to 1820 nM and the “ΔGEXP RARα” value was -7.84 kcal/mol. Also, in assay [2], the “binding preference RARα versus RARγ (from K D)” value is “close to the plotted line representing equal binding affinity for RARα and RARγ”. In assay [3], the Kd is 2150 nM and the “ΔGEXP RARγ” value was -7.76 kcal/mol.

Turning to `Cc1cc2c(cc1C#Cc1ncc(C(=O)O)cn1)C(C)(C)CCC2(C)C` [Compound 28, 2-[2-(3,5,5,8,8-Pentamethyl-5,6,7,8-tetrahydronaphthalen-2-yl)ethynyl]pyrimidine-5-carboxylic Acid], in assay [1], the Kd was found to be 420 nM and the “ΔGEXP RARα” value is -8.72 kcal/mol. In addition, the “binding preference RARα versus RARγ (from K D)” value in assay [2] is reported as “bind RARα preferentially over RARγ”. For the same compound, in assay [3], the Kd came to 750 nM and the “ΔGEXP RARγ” value is -8.36 kcal/mol.

`CC1(C)CCC(C)(C)c2nc(C#Cc3ccc(C(=O)O)cc3)cnc21` [Compound 30, 4-[2-(5,5,8,8-Tetramethyl-5,6,7,8-tetrahydroquinoxalin-2-yl)ethynyl]benzoic Acid]: in assay [1], the Kd was found to be 155 nM and the “ΔGEXP RARα” value is -9.29 kcal/mol. In assay [2], the “binding preference RARα versus RARγ (from K D)” value is “close to the plotted line representing equal binding affinity for RARα and RARγ”. Further, in assay [3], the dissociation constant Kd was found to be 217 nM and the “ΔGEXP RARγ” value is -9.09 kcal/mol.

`CC1(C)CCC(C)(C)c2nc(C#Cc3ccc(C(=O)O)cc3F)cnc21` [Compound 31, 3-Fluoro-4-[2-(5,5,8,8-tetramethyl-5,6,7,8-tetrahydroquinoxalin-2-yl)ethynyl]benzoic Acid]: in assay [1], the Kd is 203 nM and the “ΔGEXP RARα” value is -9.13 kcal/mol. Besides, in assay [2], the “binding preference RARα versus RARγ (from K D)” value was “bind RARγ stronger than RARα”. Moreover, in assay [3], the equilibrium dissociation constant (Kd) came out at 142 nM and the “ΔGEXP RARγ” value is -9.38 kcal/mol.

`Cc1sc(-c2ccc(C(=O)O)cc2)nc1-c1cnc2c(n1)C(C)(C)CCC2(C)C` [Compound 40, 4-[5-Methyl-4-(5,5,8,8-tetramethyl-5,6,7,8-tetrahydroquinoxalin-2-yl)-1,3-thiazol-2-yl]benzoic Acid]: in assay [1], the dissociation constant (Kd) stood at 559 nM and the “ΔGEXP RARα” value was -8.58 kcal/mol. In assay [2], the “binding preference RARα versus RARγ (from K D)” value was “close to the plotted line representing equal binding affinity for RARα and RARγ”. In addition, in assay [3], the Kd stood at 655 nM and the “ΔGEXP RARγ” value was -8.44 kcal/mol.

Turning to `Cc1sc(-c2ccc(C(=O)O)c(F)c2)nc1-c1cnc2c(n1)C(C)(C)CCC2(C)C` [Compound 42, 2-Fluoro-4-[5-methyl-4-(5,5,8,8-tetramethyl-5,6,7,8-tetrahydroquinoxalin-2-yl)-1,3-thiazol-2-yl]benzoic Acid], in assay [1], the Kd came to 162 nM and the “ΔGEXP RARα” value is -9.27 kcal/mol. Further, in assay [2], the “binding preference RARα versus RARγ (from K D)” value is “close to the plotted line representing equal binding affinity for RARα and RARγ”. For the same compound, in assay [3], the Kd amounted to 133 nM and the “ΔGEXP RARγ” value is -9.46 kcal/mol.

As to `Cc1sc(-c2ccc(C(=O)O)cc2F)nc1-c1cnc2c(n1)C(C)(C)CCC2(C)C` [Compound 43, 3-Fluoro-4-[5-methyl-4-(5,5,8,8-tetramethyl-5,6,7,8-tetrahydroquinoxalin-2-yl)-1,3-thiazol-2-yl]benzoic Acid], in assay [1], the Kd was found to be 2580 nM and the “ΔGEXP RARα” value was -7.64 kcal/mol. Further, the “binding preference RARα versus RARγ (from K D)” value in assay [2] is “close to the plotted line representing equal binding affinity for RARα and RARγ”. Besides, in assay [3], the equilibrium dissociation constant (Kd) was determined as 2710 nM and the “ΔGEXP RARγ” value is -7.74 kcal/mol.
